Laboratory results published in patent US8778982B2, “Synergistic microbicidal compositions” (Rohm and Haas Company, priority 2007, dated 2014).
Where two headings read alike, the source gives them in different places.

Columns and labels:
Type in all cases: cell-based
[1] = test system: Escherichia coli (E. coli—ATCC #8739); assay: Synergy test, microtiter plate high resolution MIC assay, M9GY medium, bacterium; conditions: for SI / Qb: E. coli 8739 - M9GY (1 day), A = MIT; for Qb: B alone where Qa = 0; for MIC: Escherichia coli, ATCC8739, 24 h
Excerpt: (§1) One measure of synergism is the industrially accepted method described by Kull, F. C.; Eisman, P. C.; Sylwestrowicz, H. D. and Mayer, R. L., in Applied Microbiology 9:538-541 (1961), using the ratio determined by the formula: Qa/QA+Qb/QB=Synergy Index(“SI”) wherein: • QA=concentration of compound A (first component) in ppm, acting alone, which produced an end point (MIC of Compound A). • Qa=concentration of compound A in ppm, in the mixture, which produced an end point. • QB=concentration of compound B (second component) in ppm, acting alone, which produced an end point (MIC of Compound B). • Qb=concentration of compound B in ppm, in the mixture, which produced an end point.
(§2) When the sum of Qa/QA and Qb/QB is greater than one, antagonism is indicated. […] The lower the SI, the greater is the synergy shown by that particular mixture. The minimum inhibitory concentration (MIC) of a microbicide is the lowest concentration tested under a specific set of conditions that prevents the growth of the tested microorganisms.
(§3) Synergy tests were conducted using standard microtiter plate assays with media designed for optimal growth of the test microorganism. Minimal salt medium supplemented with 0.2% glucose and 0.1% yeast extract (M9GY medium) was used for testing bacteria; Potato Dextrose Broth (PDB medium) was used for testing yeast and mold. In this method, a wide range of combinations of microbicides and other personal care raw materials was tested by conducting high resolution MIC assays in the presence of various concentrations of CMIT/MIT, MIT, or BIT. High resolution MICs were determined by adding varying amounts of microbicide to one column of a microtitre plate and doing subsequent […] dilutions using an automated liquid handling system to obtain a series of endpoints ranging from 2 ppm to 10,000 ppm active ingredient.
(§4) The synergy of the combinations of the present invention was determined against a bacterium, Escherichia coli (E. coli—ATCC #8739), a yeast, Candida albicans (C. albicans—ATCC 10231), and a mold, Aspergillus niger (A. niger—ATCC 16404). The bacteria were used at a concentration of about 5×10^6 bacteria per mL and the yeast and mold at 5×10^5 fungi per mL. These microorganisms are representative of natural contaminants in many consumer and industrial applications. […] (yeast and mold) or 30° C. (bacteria).

[2] = test system: Candida albicans (C. albicans—ATCC 10231); assay: Synergy test, microtiter plate high resolution MIC assay, PDB medium, yeast; conditions: for SI / Qb: C. albicans 10231 - PDB (6 days), A = MIT; for Qb: B alone where Qa = 0; for MIC: Candida albicans
Excerpt: as §1, §2, §3, §4

[3] = test system: Aspergillus niger (A. niger—ATCC 16404); assay: Synergy test, microtiter plate high resolution MIC assay, PDB medium, mold; conditions: for SI / Qb: A. niger 16404 - PDB (10 days), A = MIT; for Qb: B alone where Qa = 0; for MIC: Aspergillus niger, ATCC16404, 72 h
Excerpt: as §1, §2, §3, §4

CCCCCCCCCC(=O)OCC(O)CO (stereo not drawn) [Glyceryl caprate]
1.00: SI (synergy index) ([1]; E. coli 8739, M9GY, 1 day) | Synergy Index (SI) = Qa/QA+Qb/QB ([1]; E. coli 8739, M9GY, 1 day) | SI ([1]; B = Glyceryl caprate) | Synergy Index (SI) = Qa/QA+Qb/QB ([2]; C. albicans 10231, PDB, 1 day) | SI (synergy index) ([2]; C. albicans 10231, PDB, 6 days) | SI ([2]; B = Glyceryl caprate) | SI (synergy index) ([3]; A. niger 16404, PDB, 3 days) | Synergy Index (SI) = Qa/QA+Qb/QB ([3]; A. niger 16404, PDB, 3 days) | SI ([3]; B = Glyceryl caprate)
2000 µg/mL: MIC ([2]; ATCC10231, 24 h, C. albicans 10231, PDB, 1 day, 25° C., read-out: MIC of the component acting alone (QA or QB)) | MIC ([2]; ATCC10231, 144 h, C. albicans 10231, PDB, 6 days, read-out: MIC of the component acting alone (Qa or Qb with the other component at 0)) | MIC ([3]; A. niger 16404, PDB, 3 days, 25° C., read-out: MIC of the component acting alone (QA or QB)) | MIC ([3]; A. niger 16404, PDB, 3 days, read-out: MIC of the component acting alone (Qa or Qb with the other component at 0))
2000 ppm: Qb ([2]; B = Glyceryl caprate) | Qb ([3]; B = Glyceryl caprate)
20000 ppm: Qb ([1]; B = Glyceryl caprate)
20000 µg/mL: MIC ([1]; E. coli 8739, M9GY, 1 day, 30° C., read-out: MIC of the component acting alone (QA or QB)) | MIC ([1]; E. coli 8739, M9GY, 1 day, read-out: MIC of the component acting alone (Qa or Qb with the other component at 0))

CCCCCCCCCCCC(=O)N[C@@H](CCCNC(=N)N)C(=O)OCC.Cl [Lauric arginate, N-α-lauoryl-L-arginine ethyl ester monohydrochloride]
1.00: SI (synergy index) ([1]; E. coli 8739, M9GY, 1 day) | Synergy Index (SI) = Qa/QA+Qb/QB ([1]; E. coli 8739, M9GY, 1 day) | SI ([1]; B = Lauric arginate) | Synergy Index (SI) = Qa/QA+Qb/QB ([2]; C. albicans 10231, PDB, 1 day) | SI (synergy index) ([2]; C. albicans 10231, PDB, 6 days) | SI ([2]; B = Lauric arginate) | SI (synergy index) ([3]; A. niger 16404, PDB, 3 days) | Synergy Index (SI) = Qa/QA+Qb/QB ([3]; A. niger 16404, PDB, 4 days) | SI ([3]; B = Lauric arginate)
200 ppm: MIC of the component acting alone (QA or QB) ([1]; E. coli 8739, M9GY, 1 day, 30° C.) | MIC of the component acting alone (Qa or Qb with the other component at 0) ([2]; C. albicans 10231, PDB, 6 days)
300 ppm: MIC of the component acting alone (Qa or Qb with the other component at 0) ([1]; E. coli 8739, M9GY, 1 day) | Qb ([1]; B = Lauric arginate)
2000 ppm: MIC of the component acting alone (Qa or Qb with the other component at 0) ([3]; A. niger 16404, PDB, 3 days) | MIC of the component acting alone (QA or QB) ([3]; A. niger 16404, PDB, 4 days, 25° C.) | Qb ([3]; B = Lauric arginate)
800 ppm: MIC of the component acting alone (QA or QB) ([2]; C. albicans 10231, PDB, 1 day, 25° C.) | Qb ([2]; B = Lauric arginate)
